In test [1] the test system is adenylate cyclase. Conditions: relative to glucagon = 100; liver membranes. The method, then:
Adenylate Cyclase Assay. The assay on liver membranes was performed according to Salomon et al. [Salomon, Y., Londos, C. & Rodbell, M. Anal. Biochem. 58, 541,548 (1974)]. The released cAMP was mixed with [8-^3 H]cAMP measured with a high affinity cAMP binding protein.
The purpose of the adenylate cyclase assays is to measure the ability of the compound under test to stimulate the activity of adenylate cyclase. The assays are used to measure relative potency, maximum activity and inhibition index.
The inhibition index, defined above, was determined from adenylate cyclase assays by two different protocols.
2. […] Increasing amounts of antagonist were then added and the concentration that reduced the response to 45% of maximum was determined.

In test [2] the test system is adenylate cyclase. Conditions: prior-art antagonist; cited from earlier work.
The test system of another test is hepatocyte membrane. Conditions: prior-art antagonist; cited from earlier work.
A further test relates to glucagon receptor. Conditions: prior-art antagonist; cited from earlier work.

Where no end group is shown, it is not given here. Bounds are passed on as bounds.

`CSCC[C@H](NC(=O)[C@H](CC(C)C)NC(=O)[C@H](Cc1c[nH]c2ccccc12)NC(=O)[C@H](CCC(N)=O)NC(=O)[C@@H](NC(=O)[C@H](Cc1ccccc1)NC(=O)[C@H](CC(=O)O)NC(=O)[C@H](CCC(N)=O)NC(=O)[C@H](C)NC(=O)[C@H](CCCNC(=N)N)NC(=O)[C@H](CCCNC(=N)N)NC(=O)[C@H](CO)NC(=O)[C@H](CC(=O)O)NC(=O)[C@H](CC(C)C)NC(=O)[C@H](Cc1ccc(O)cc1)NC(=O)[C@H](CCCCN)NC(=O)[C@H](CO)NC(=O)[C@H](Cc1ccc(O)cc1)NC(=O)[C@H](CCC(=O)O)NC(=O)[C@H](CO)NC(=O)[C@@H](NC(=O)[C@H](Cc1ccccc1)NC(=O)[C@@H](NC(=O)CNC(=O)[C@H](CCC(N)=O)NC(=O)[C@@H](N)CO)[C@@H](C)O)[C@@H](C)O)C(C)C)C(=O)N[C@@H](CC(N)=O)C(=O)N[C@H](C(=O)O)[C@@H](C)O` [Compound 1, des-His^1-[Glu^9] glucagon]: in the test on adenylate cyclase [1], the “ADENYL CYCLASE ASSAYS Rel. Potency” value is listed as below 0.0008.
Still for that read-out and setting: then `CSCC[C@H](NC(=O)[C@H](CC(C)C)NC(=O)[C@H](Cc1c[nH]c2ccccc12)NC(=O)[C@H](CCC(N)=O)NC(=O)[C@@H](NC(=O)[C@H](Cc1ccccc1)NC(=O)[C@H](CC(=O)O)NC(=O)[C@H](CCC(N)=O)NC(=O)[C@H](C)NC(=O)[C@H](CCCNC(=N)N)NC(=O)[C@H](CCCNC(=N)N)NC(=O)[C@H](CO)NC(=O)[C@H](CC(=O)O)NC(=O)[C@H](CC(C)C)NC(=O)[C@H](Cc1ccc(O)cc1)NC(=O)[C@H](CCCCN)NC(=O)[C@H](CO)NC(=O)[C@H](Cc1ccc(O)cc1)NC(=O)[C@H](CCC(=O)O)NC(=O)[C@H](CO)NC(=O)[C@@H](NC(=O)[C@H](Cc1ccccc1)NC(=O)[C@@H](NC(=O)CNC(=O)[C@H](CCC(N)=O)NC(=O)[C@@H](N)CO)[C@@H](C)O)[C@@H](C)O)C(C)C)C(=O)N[C@@H](CC(N)=O)C(=O)N[C@H](C(N)=O)[C@@H](C)O` [Compound 2, des-His^1-[Glu^9] glucagon amide], with below 0.0001.
For the compound “Nα- trinitrophenyl [12-homoarginine] glucagon”, the “activation of adenylate cyclase (in words)” value in the test with adenylate cyclase [2] is “without significant activation”. For the same compound, the “activation of another binding system leading to inositol triphosphate and calcium ions (in words)” value with hepatocyte membrane is listed as “activates another binding system”. The “binding to the glucagon receptor (in words)” value with glucagon receptor was “does bind to the glucagon receptor”.
For the compound “SQGTFTSEYSKYLDSKKAQEFVQWLMNT [Compound 3, des-His^1-[Glu^9 -Lys^17,18 Glu^21] glucagon]”, the “ADENYL CYCLASE ASSAYS Rel. Potency” value in the test with adenylate cyclase [1] came out at 0.0001.
